Patent publication US5352804A, “Isolation and structure of Halistatin 2” (Arizona Board of Regents, a body corporate, acting on …, priority 1993, dated 1994)
Like-named read-outs stand apart in the source and are kept apart here.

Columns and labels:
Experiment in all cases: NCI human tumor in vitro primary screen
Type in all cases: cell-based
SNB-78 = conditions: CNS cancer
Text: (§1) Only two hundred years ago, many diseases ravaged humankind. Many of these diseases now have been controlled or eradicated. In the development of the means to treat or control these diseases, work with the appropriate common experimental animals was of critical importance. With the various types of cancers, and with the HIV virus, such work is presently ongoing. The research for the treatment of various types of cancer is coordinated in the United States by the National Cancer Institute (NCI). NCI, as a government entity, has been charged with assisting anti-cancer research. To establish whether a substance has anti cancer activity, NCI has established a variety of protocols, one of which involves testing the candidate substance against a cell line panel containing 60 human tumor cell lines. This protocol has been verified and is generally accepted throughout the scientific community. This protocol and the established statistical means of evaluating the results obtained therefrom have been fully described in the literature. See Principles & Practice of Oncology PPO Updates, Volume 3, Number 10, Oct. 1989, by Michael R. Boyd, M.D., Ph.D., for an indepth description of the test protocol. The statistical analysis is explained in "Display and Analysis of Patterns of Differential Activity of Drugs Against Human Tumor Cell Lines: Development of Means Graph and COMPARE Algorithm" Journal of the National Cancer Institute Reports Vol. 81, No. 14, Pg. 1088, Jul. 14, 1989, by K. D. Paull et al. Both of these references are incorporated herein by this reference thereto.
(§2) Biological Testing; Data Display and Analysis; Screening Data Summary. Freshly isolated halistatin 2 was tested in the NCI's human tumor, disease-oriented in vitro primary screen, and data calculations performed. Table 3 is a composite prepared from mean graphs constructed from the averaged GI50 values from quadruplicate screenings of Halistatin 2.

SF-539 = conditions: CNS cancer
Text: as §1, §2

COLO 205 = conditions: colon cancer
Text: as §1, §2

OVCAR-5 = conditions: ovarian cancer
Text: as §1, §2

KM 20L2 = system: KM 20L2
Text: as §1, §2

UACC-62 = conditions: melanoma
Text: as §1, §2

A498 = conditions: renal cancer
Text: as §1, §2

K-562 = conditions: K562, leukemia
Text: as §1, §2

OVCAR-3 = conditions: ovarian cancer
Text: as §1, §2

RXF-393 = system: RXF-393
Text: as §1, §2

SNB-75 = conditions: CNS cancer
Text: as §1, §2

CCRF-CEM = conditions: leukemia
Text: as §1, §2

M14 = conditions: melanoma
Text: as §1, §2

NCI-H23 = system: NCI-H23
Text: as §1, §2

NCI-H226 = system: NCI-H226
Text: as §1, §2

SW-620 = conditions: colon cancer
Text: as §1, §2

SN12C = conditions: renal cancer
Text: as §1, §2

OVCAR-8 = conditions: ovarian cancer
Text: as §1, §2

MALME-3M = conditions: melanoma
Text: as §1, §2

SK-MEL-5 = conditions: melanoma
Text: as §1, §2

RPMI-8226 = conditions: leukemia
Text: as §1, §2

CAKI-1 = system: CAKI-1
Text: as §1, §2

XF 498 = system: XF 498
Text: as §1, §2

KM12 = conditions: colon cancer
Text: as §1, §2

[1] = read-out: Log10 GI50 (converted)
[2] = read-out: Log10 TGI (converted)
[3] = read-out: averaged negative log10 GI50 (converted)
[4] = non-small cell lung cancer, read-out: averaged negative log10 GI50 (converted)

C=C1CC2CCC34CC5OC6C(O3)C3OC(CCC3OC6(O)C5O4)CC(=O)OC3C(CC4OC(CCC1O2)CC(C)C4=C)OC1CC2OC4(CC2OC1C3C)CC1OC2(CC(C)C3OC5CC(C(O)CO)OC5CC3O2)CC(C)C1O4 (stereo not drawn) [halistatin 2]
GI50 (SNB-78; [1]): 0.12 nM
IC (TGI) (SNB-78; [2]): 10 nM
GI50 (SNB-78; [3]): 0.12 nM
GI50 (SF-539; [1]): 0.324 nM
IC (TGI) (SF-539; [2]): 1.51 nM
GI50 (SF-539; [3]): 0.324 nM
GI50 (COLO 205; [1]): 0.219 nM
IC (TGI) (COLO 205; [2]): 1.51 nM
GI50 (COLO 205; [3]): 0.219 nM
GI50 (OVCAR-5; [1]): 1.82 nM
IC (TGI) (OVCAR-5; [2]): 10 nM
GI50 (OVCAR-5; [3]): 1.82 nM
GI50 (KM 20L2; KM 20L2, colon cancer, read-out: averaged negative log10 GI50 (converted)): 0.427 nM
GI50 (KM 20L2; KM-20L2, printed KM2012, colon cancer, read-out: Log10 GI50 (converted)): 0.427 nM
IC (TGI) (KM 20L2; KM-20L2, printed KM2012, colon cancer, read-out: Log10 TGI (converted)): 1.91 nM
GI50 (UACC-62; [1]): 0.339 nM
IC (TGI) (UACC-62; [2]): 10 nM
GI50 (UACC-62; [3]): 0.339 nM
GI50 (A498; [1]): 1.82 nM
IC (TGI) (A498; [2]): 10 nM
GI50 (A498; [3]): 1.82 nM
GI50 (K-562; [1]): 0.229 nM
IC (TGI) (K-562; [2]): 2.57 nM
GI50 (K-562; [3]): 0.229 nM
GI50 (OVCAR-3; [1]): 0.282 nM
IC (TGI) (OVCAR-3; [2]): 1.58 nM
GI50 (OVCAR-3; [3]): 0.282 nM
GI50 (RXF-393; RXF 393, printed RXP-393, renal cancer, read-out: Log10 GI50 (converted)): 0.479 nM
IC (TGI) (RXF-393; RXF 393, printed RXP-393, renal cancer, read-out: Log10 TGI (converted)): 3.09 nM
GI50 (RXF-393; RXF-393, renal cancer, read-out: averaged negative log10 GI50 (converted)): 0.479 nM
GI50 (SNB-75; [1]): 0.269 nM
IC (TGI) (SNB-75; [2]): 10 nM
GI50 (SNB-75; [3]): 0.269 nM
GI50 (CCRF-CEM; [1]): 0.2 nM
IC (TGI) (CCRF-CEM; [2]): 4.27 nM
GI50 (CCRF-CEM; [3]): 0.2 nM
GI50 (M14; [1]): 0.676 nM
IC (TGI) (M14; [2]): 5.75 nM
GI50 (M14; [3]): 0.676 nM
GI50 (NCI-H23; NCl-H23, non-small cell lung cancer, read-out: Log10 GI50 (converted)): 0.661 nM
IC (TGI) (NCI-H23; NCl-H23, non-small cell lung cancer, read-out: Log10 TGI (converted)): 6.76 nM
GI50 (NCI-H23; [4]): 0.661 nM
GI50 (NCI-H226; NCl-H226, non-small cell lung cancer, read-out: Log10 GI50 (converted)): 0.724 nM
IC (TGI) (NCI-H226; NCl-H226, non-small cell lung cancer, read-out: Log10 TGI (converted)): 3.72 nM
GI50 (NCI-H226; [4]): 0.724 nM
GI50 (SW-620; [1]): 0.398 nM
IC (TGI) (SW-620; [2]): 10 nM
GI50 (SW-620; [3]): 0.398 nM
GI50 (SN12C; [1]): 1.82 nM
IC (TGI) (SN12C; [2]): 10 nM
GI50 (SN12C; [3]): 1.82 nM
GI50 (OVCAR-8; [1]): 1.29 nM
IC (TGI) (OVCAR-8; [2]): 7.08 nM
GI50 (OVCAR-8; [3]): 1.29 nM
GI50 (MALME-3M; [1]): 0.229 nM
IC (TGI) (MALME-3M; [2]): 10 nM
GI50 (MALME-3M; [3]): 0.229 nM
GI50 (SK-MEL-5; [1]): 0.182 nM
IC (TGI) (SK-MEL-5; [2]): 1.82 nM
GI50 (SK-MEL-5; [3]): 0.182 nM
GI50 (RPMI-8226; [1]): 0.407 nM
IC (TGI) (RPMI-8226; [2]): 10 nM
GI50 (RPMI-8226; [3]): 0.407 nM
GI50 (CAKI-1; CAKl-1, renal cancer, read-out: Log10 GI50 (converted)): 1.29 nM
IC (TGI) (CAKI-1; CAKl-1, renal cancer, read-out: Log10 TGI (converted)): 10 nM
GI50 (CAKI-1; renal cancer, read-out: averaged negative log10 GI50 (converted)): 1.29 nM
GI50 (XF 498; XF498, CNS cancer, read-out: Log10 GI50 (converted)): 0.427 nM
IC (TGI) (XF 498; XF498, CNS cancer, read-out: Log10 TGI (converted)): 4.47 nM
GI50 (XF 498; XF498, XF 498, CNS cancer, read-out: averaged negative log10 GI50 (converted)): 0.427 nM
GI50 (KM12; [1]): 0.537 nM
IC (TGI) (KM12; [2]): 10 nM
GI50 (KM12; [3]): 0.537 nM
